{
  "source": "paper PMC8080777",
  "about": "“Discovery, optimization, and evaluation of non-bile acid FXR/TGR5 dual agonists” (Scientific Reports, 2021)",
  "origin": "cited, not measured here",
  "key": {"FXR": {"test_system": "FXR", "settings": "cited from earlier work"}, "TGR5": {"biological_target": "T1, TGR5 (Homo sapiens, UniProt Q8TDU6)", "T1 construct": "host or cells: CHO cells", "T1 sequence (Q8TDU6 1-330)": "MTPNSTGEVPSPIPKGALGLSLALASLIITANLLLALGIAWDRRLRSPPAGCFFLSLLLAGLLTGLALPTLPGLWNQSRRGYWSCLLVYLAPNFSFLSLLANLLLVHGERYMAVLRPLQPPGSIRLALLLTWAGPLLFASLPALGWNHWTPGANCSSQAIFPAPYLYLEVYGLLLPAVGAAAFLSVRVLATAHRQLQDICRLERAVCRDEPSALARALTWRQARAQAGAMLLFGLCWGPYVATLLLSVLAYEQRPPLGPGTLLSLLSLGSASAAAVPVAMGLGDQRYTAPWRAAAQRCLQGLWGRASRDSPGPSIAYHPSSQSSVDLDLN", "settings": "cited from earlier work"}},
  "data": [
    {"smiles": "COC(=O)/C=C/c1cccc(N(Cc2ccc(-c3ccc(N(C)C)cc3)cc2)C(=O)C2CCCCC2)c1", "note": "[Compound 7, Fexaramine, reference compound]", "values": [
      {"measurement": "Reported FXR activity (in words)", "setting": "FXR", "result": "specific and potent partial agonist against FXR"},
      {"measurement": "Reported TGR5 activity (in words)", "setting": "TGR5", "result": "no significant agonist activity against TGR5"}
    ]}
  ]
}
